Experimental data from patent US20080194679A1, “Compositions and methods for increasing metabolic activity in animal tissue” (priority 2007, published 2008).
Marks after values point to notes of the source that are not given here.

What was measured:
[1] = Iron source fed to gestating sows; piglet blood hemoglobin, hematocrit and serum ferritin at farrowing; type: in vivo, sows / piglets; details: sows fed iron source daily from 4 weeks before farrowing
Description: Ferrous iron was chelated to various high nitrogen-containing amino acid chelates. Six grams of such a chelate formula (0.6 g Fe) was fed daily to gestating sows beginning 4 weeks before expected farrowing. Another group of gestating sows received 2 g daily of ferrous fumarate (0.67 g Fe) for the same period. One week prior to farrowing, the dosages of iron were doubled for each group.
At farrowing blood samples were taken from each piglet and assayed for hemoglobin, hematocrit, and serum ferritin. The hemoglobin and hematocrit represent current iron status but serum ferritin represents iron storage for future use.

[2] = chicks, 21 days, 40 mg zinc per day per kg feed
Experimental: (§1) A group of one day old chicks were administered 40 mg zinc per day per kg feed for 21 consecutive days. […] At the end of 21 days, all chicks in all groups were killed, freeze dried, and a whole body assay for zinc performed.

[3] = chicks, 21 Day, 40 mg zinc per day per kg feed
Experimental: as §1

[4] = Isotope study: deposition of 65zinc into male sex organ tissues after single intravenous dose; type: in vivo; details: zinc sufficient adult male rats, single I.V. dose 0.06 mg zinc, 24 hours post-dosing
Experimental: In an isotope study, three groups of zinc sufficient adult male rats (6/group) received a single intravenous (I.V.) dose of 0.06 mg zinc containing 10 microcurines of zinc chelated to either arginine or glycine or as zinc chloride (ZnCl2). The arginine contained about twice as much nitrogen bonded to the zinc atom as did glycine. The ZnCl2 had no nitrogen bonded to the zinc. Twenty four hours post-dosing, all animals were sacrificed and their testes, epididymis, and seminal vesicles were assayed for zinc. The male sex organs were targeted for these zinc assays because of the dominant role zinc plays in their proper functioning. In theory, the uptake of zinc from the three sources into the tissues should have been equivalent since all three sources were administered by I.V. and none of the animals was zinc deficient.
As noted above, arginine has about twice as much nitrogen in the ligand as glycine.

[5] = Tied-off ileum section dosed with 65Zn solution; 65Zn in liver, heart and spleen by liquid scintillation; type: in vivo; details: non-fasted rats, 1×10^−4M solution in tied off ileum section, 2 hours post dosing
Experimental: Non-fasted rats were first anesthetized and then their intestines exposed. A 10 cm section of the ileum was tied off at both ends extending 15 cm to 5 cm proximal to the ileoceal valve. At each end, a 0.5 cm incision was made allowing the tied off section to be thoroughly washed with Ringers solution via the incisions. A solution containing ^65ZnCl2 or ^65Zn Histidine (1×10^−4M) was introduced into the tied off section. At 2 hours post dosing, the rats were killed by cervical dislocation. Their livers, hearts, and spleens were taken, weighed, dissected, and assayed by liquid scintillation for ^65Zn.

## O=C([O-])/C=C/C(=O)[O-].[Fe+2] [Ferrous Fumarate, ferrous fumarate]
[1]; a/b P < 0.01
  Serum Ferritin: 20.1^b ng/ml
[1]; doubled in the last week
  Hematocrit: 33.2%
  Hemoglobin: 9.7 g/dL

## NCC(=O)[O-].NCC(=O)[O-].[Zn+2] [Zn Bisglycinate (2:1), zinc bisglycinate (2:1)]
[2]
  zinc retention in the body (in words): increased to some degree
[3]
  Body Weight: 812.55 g
  Gain/Feed: .078 g

## O=[N+]([O-])[O-].O=[N+]([O-])[O-].[Zn+2] [Zn Nitrate, zinc nitrate]
[2]
  zinc retention in the body (in words): similar
[3]
  Body Weight: 734.98 g
  Gain/Feed: 0.74 g

## [Cl-].[Cl-].[Zn+2] [^65Zn Chloride, zinc chloride]
[4]; epididymis
  Deposition of ^65zinc into tissue: Epididymis: Negligible
[4]; seminal vesicle
  Deposition of ^65zinc into tissue: Seminal Vesicle: Negligible
[4]; testes
  Deposition of ^65zinc into tissue: Testes: Negligible
[5]; heart
  ^65Zn in tissue: Heart: 1.00 ± 0.33 number × 10^−10 Zn/gm
[5]; liver
  ^65Zn in tissue: Liver: 8.67 ± 5.67 number × 10^−10 Zn/gm
[5]; spleen
  ^65Zn in tissue: Spleen: 3.50 ± 0.25 number × 10^−10 Zn/gm

## zinc bisarginate (2:1) [Zn Bisarginate (2:1)]
[2]
  zinc retention in the body (in words): increased over zinc bisglycinate (2:1) significantly
[3]
  Body Weight: 829.15 g
  Gain/Feed: .078 g

## zinc glycinate (1:1) [Zn Glycinate (1:1)]
[2]
  zinc retention in the body (in words): similar
[3]
  Body Weight: 817.08 g
  Gain/Feed: 0.77 g
